Test results: patent publication US8835436B2 (priority 2009, dated 2014)
Structures can show the parent of a compound that is named as a salt.

biological target: human recombinant 5-HT2C receptor (Homo sapiens (Human), UniProt P28335); conditions: read-out: Binding affinity to serotonin receptor 5-HT2C: IC50
Sequence (P28335 whole entry, looked up): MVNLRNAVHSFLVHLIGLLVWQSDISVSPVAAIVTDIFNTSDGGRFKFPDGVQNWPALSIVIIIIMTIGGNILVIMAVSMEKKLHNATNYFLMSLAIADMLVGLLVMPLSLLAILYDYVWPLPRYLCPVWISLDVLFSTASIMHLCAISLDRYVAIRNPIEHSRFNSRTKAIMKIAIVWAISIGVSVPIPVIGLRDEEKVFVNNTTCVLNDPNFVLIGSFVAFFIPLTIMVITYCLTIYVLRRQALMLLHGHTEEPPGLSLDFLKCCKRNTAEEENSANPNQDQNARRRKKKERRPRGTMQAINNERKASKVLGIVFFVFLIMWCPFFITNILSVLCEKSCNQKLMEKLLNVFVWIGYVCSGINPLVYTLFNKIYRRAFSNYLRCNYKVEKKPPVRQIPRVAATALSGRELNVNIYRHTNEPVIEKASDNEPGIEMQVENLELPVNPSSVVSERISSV
Experimental: Receptor binding affinities of the compounds for serotonin receptors were measured by the method described in the literature [Park W K et al., Pharmacol Biochem Behay.
The binding affinity (IC50) of a compound for the receptor was calculated by computerized nonlinear regression analysis (GraphPad Prism Program, San Diego, USA) using 7-8 varied concentrations of the compound run in duplicate tubes.
Nonspecific binding was determined using 100 uM mianserin. The incubations were performed for 60 min at 27° C., and these were terminated by rapid filtration through filtermate A glass fiber filter presoaked in 0.5% PEI.

First: CCCc1nc(C(=O)NCCCN2CCN(c3cccc(C)c3C)CC2)cn1-c1ccccc1 [Example 117, N-(3-(4-(2,3-dimethylphenyl)piperazin-1-yl)propyl)-1-phenyl-2-propyl-1H-imidazole-4-carboxamide dihydrochloride]
Second: CCCc1nc(C(=O)NCC(O)CN2CCN(c3cccc(C)c3C)CC2)cn1-c1ccccc1 (stereo not shown) [Example 121, N-(3-(4-(2,3-dimethylphenyl)piperazin-1-yl)-2-hydroxypropyl)-1-phenyl-2-propyl-1H-imidazole-4-carboxamide dihydrochloride]
The IC50 of the first is 6.2-fold lower: 103 nM for the first, 635 nM for the second.

Going from COc1ccccc1-n1c(C)nc(C(=O)NCC(O)CN2CCN(c3cccc(C)c3C)CC2)c1C (stereo not shown) [Example 100, N-(3-(4-(2,3-dimethylphenyl)piperazin-1-yl)-2-hydroxypropyl)-1-(2-methoxyphenyl)-2,5-dimethyl-1H-imidazole-4-carboxamide dihydrochloride] to Cc1ccc(-n2c(C)nc(C(=O)NCC(O)CN3CCN(c4cccc(C)c4C)CC3)c2C)cc1 (stereo not shown) [Example 148, N-(3-(4-(2,3-dimethylphenyl)piperazin-1-yl)-2-hydroxypropyl)-2,5-dimethyl-1-p-tolyl-1H-imidazole-4-carboxamide dihydrochloride], the IC50 rises from 207 nM to 705 nM (3.4-fold). The first is the more potent here.

First: Cc1cccc(N2CCN(CC(O)CNC(=O)c3nc(C)n(CC(C)C)c3C)CC2)c1C (stereo not shown) [Example 94, N-(3-(4-(2,3-dimethylphenyl)piperazin-1-yl)-2-hydroxypropyl)-1-isobutyl-2,5-dimethyl-1H-imidazole-4-carboxamide dihydrochloride]
Second: CCCn1c(C)nc(C(=O)NCC(O)CN2CCN(c3cccc(C)c3C)CC2)c1C (stereo not shown) [Example 96, N-(3-(4-(2,3-dimethylphenyl)piperazin-1-yl)-2-hydroxypropyl)-2,5-dimethyl-1-propyl-1H-imidazole-4-carboxamide dihydrochloride]
The IC50 of the first is lower: 595 nM for the first, > 10000 nM for the second. The first is the more potent here.

Going from Cc1ccc(-n2c(C)nc(C(=O)NCCCN3CCN(c4cccc(C)c4C)CC3)c2C)cc1 [Example 147, N-(3-(4-(2,3-dimethylphenyl)piperazin-1-yl)propyl)-2,5-dimethyl-1-p-tolyl-1H-imidazole-4-carboxamide dihydrochloride] to Cc1cccc(N2CCN(CCNC(=O)c3nc(C)n(-c4ccc(F)cc4)c3C)CC2)c1C [Example 114, N-(2-(4-(2,3-dimethylphenyl)piperazin-1-yl)ethyl)-1-(4-fluorophenyl)-2,5-dimethyl-1H-imidazole-4-carboxamide dihydrochloride], the IC50 falls from 78.1 nM to 46 nM (1.7-fold).

CCCc1nc(C(=O)NCC(O)CN2CCN(c3cccc(C)c3C)CC2)cn1-c1ccc(Cl)cc1 (stereo not shown) [Example 111, 1-(4-chlorophenyl)-N-(3-(4-(2,3-dimethylphenyl)piperazin-1-yl)-2-hydroxypropyl)-2-propyl-1H-imidazole-4-carboxamide dihydrochloride] and Cc1cccc(N2CCN(CC(O)CNC(=O)c3nc(-c4ccccc4)n(-c4ccccc4)c3C)CC2)c1C (stereo not shown) [Example 155, N-(3-(4-(2,3-dimethylphenyl)piperazin-1-yl)-2-hydroxypropyl)-5-methyl-1,2-diphenyl-1H-imidazole-4-carboxamide dihydrochloride] are within 1.5-fold of each other in IC50: 661 nM for the first, 525 nM for the second.

Compared with COc1ccccc1-n1c(C)nc(C(=O)NCCCN2CCN(c3cccc(Cl)c3Cl)CC2)c1C [Example 145, N-(3-(4-(2,3-dichlorophenyl)piperazin-1-yl)propyl)-1-(2-methoxyphenyl)-2,5-dimethyl-1H-imidazole-4-carboxamide dihydrochloride], Cc1nc(C(=O)NCCCN2CCN(c3cccc(Cl)c3Cl)CC2)c(C)n1-c1ccccc1 [Example 6, N-(3-(4-(2,3-dichlorophenyl)piperazin-1-yl)propyl)-2,5-dimethyl-1-phenyl-1H-imidazole-4-carboxamide] is 2.1-fold lower in IC50: 25.5 nM for the first, 12.1 nM for the second. The second is the more potent here.

First: COc1ccc(-n2cc(C(=O)NCCCN3CCN(c4cccc(C)c4C)CC3)nc2-c2ccccc2)cc1 [Example 134, N-(3-(4-(2,3-dimethylphenyl)piperazin-1-yl)propyl)-1-(4-methoxyphenyl)-2-phenyl-1H-imidazole-4-carboxamide dihydrochloride]
Second: COc1cc(OC)cc(-n2c(C)nc(C(=O)NCCN3CCN(c4cccc(C)c4C)CC3)c2C)c1 [Example 112, 1-(3,5-dimethoxyphenyl)-N-(2-(4-(2,3-dimethylphenyl)piperazin-1-yl)ethyl)-2,5-dimethyl-1H-imidazole-4-carboxamide dihydrochloride]
The IC50 of the first is 1.6-fold higher: 101 nM for the first, 63 nM for the second. The second is the more potent here.

Going from CCc1nc(C(=O)NCCN2CCN(c3cccc(Cl)c3Cl)CC2)c(C)n1-c1ccccc1 [Example 13, N-(2-(4-(2,3-dichlorophenyl)piperazin-1-yl)ethyl)-2-ethyl-5-methyl-1-phenyl-1H-imidazole-4-carboxamide] to CCCc1nc(C(=O)NCCCN2CCN(c3cccc(Cl)c3Cl)CC2)c(C)n1-c1ccccc1 [Example 7, N-(3-(4-(2,3-dichlorophenyl)piperazin-1-yl)propyl)-5-methyl-1-phenyl-2-propyl-1H-imidazole-4-carboxamide dihydrochloride], the IC50 rises from 62 nM to 189 nM (3-fold).

Going from Cc1cccc(N2CCN(CCCNC(=O)c3nc(C)n(CC(C)C)c3C)CC2)c1C [Example 92, N-(3-(4-(2,3-dimethylphenyl)piperazin-1-yl)propyl)-1-isobutyl-2,5-dimethyl-1H-imidazole-4-carboxamide dihydrochloride] to Cc1cccc(N2CCN(CCNC(=O)c3nc(C)n(-c4ccc5c(c4)OCO5)c3C)CC2)c1C [Example 115, 1-(benzo[d][1,3]dioxol-5-yl)-N-(2-(4-(2,3-dimethylphenyl)piperazin-1-yl)ethyl)-2,5-dimethyl-1H-imidazole-4-carboxamide dihydrochloride], the IC50 falls from 10100 nM to 27 nM (370-fold). The second is the more potent here.

CCc1c(C(=O)NCCCN2CCN(c3cccc(Cl)c3Cl)CC2)nc(-c2ccc(Cl)cc2Cl)n1-c1ccc(Br)cc1 [Example 89, 1-(4-bromophenyl)-2-(2,4-dichlorophenyl)-N-(3-(4-(2,3-dichlorophenyl)piperazin-1-yl)propyl)-5-ethyl-1H-imidazole-4-carboxamide] gave an IC50 of 319 nM.
